# Experiments:
# muscarinic binding site = assay: inhibition of specific binding at the muscarinic binding site
# Description: The compounds were assayed at one or more concentrations in each binding assay.
# [1] = system: patients clinically diagnosed as having presenile primary degenerative dementia; details: double blind study, Christie et al. (1981); cited from earlier work
# rats = assay: reversal of retrograde amnesia in rats produced by electroconvulsive shock treatment; format: in vivo, rat (Charles River CD strain); design: reversal of retrograde amnesia (Table C): scale not given here
# Description: Several representative compounds of the present invention were also assayed in an in vivo test designed to assess the ability of the compounds to reverse retrograde amnesia in rats produced by electroconvulsive shock treatment. Activity of a compound in this test is indicative of potential cognition activating activity in human patients suffering from impaired cognitive function.
# In the test, groups of fifty weanling rats (Charles River CD strain) are randomly divided into five sub-groups of ten rats each. The rats are trained by placing them in a highly illuminated 6 inch by 8 inch box which opens into a darkened 8 inch by 12 inch chamber having electrified grids. Initially, rats move freely from the illuminated compartment to the darkened chamber through a 4 inch by 4 inch doorway.
# When a rat has all four feet within the darkened chamber, the floor of the darkened chamber is electrified and the rat is electrically shocked until it exits to the original illuminated area. If a rat reenters the darkened chamber before one minute has elapsed, it again receives a mild foot shock until it exits to the illuminated area. When the rat remains in the illuminated area for a period of one minute, it is removed and placed in a group holding cage.
# Two hours after the above training, the rats are given a single 20 ma electroconvulsive shock of 1 second duration and immediately returned to the holding cage.
# Two hours after the delivery of the shock, the rats are administered the test compound orally, or intraperitoneally or intramuscularly for special tests.
# One hour after treatment with the test compound, the rats are tested for retention of the avoidance response. This is accomplished by placing a drug-treated rat in the illuminated area of the test chamber. […] Any rat entering the darkened chamber within sixty seconds is designated as having amnesia for this response.
# The five sub-groups of ten rats each were treated as follows:
# A 50% difference between the baseline and ceiling control groups was required to evaluate a particular test compound. If a difference of less than 50% was observed, the results of that particular experiment were discarded.
# Under the test conditions, a difference of this magnitude is statistically significant using the multinomial expansion of the statistical chi-square test.
compound,measurement,setting,value
"COC(=O)C1=CCCN(C)C1 [Arecoline, methyl ester of 1,2,5,6-tetrahydro-1-methyl-3-pyridinecarboxylic acid, reference compound]",IC50,muscarinic binding site,1.1 µM
same,test of picture recognition,[1],Significant improvement
"COC(=O)C1=C(c2ccccc2)CCN(C)C1 [Example 21, 1,2,5,6-tetrahydro-1-methyl-4-phenyl-3-pyridinecarboxylicacid, methyl ester]",IC50,muscarinic binding site,3.16 µM
same,"active (A) / inactive (N), reversal of retrograde amnesia",rats; 0.01 mg/kg,"A (""active"" (A) if the difference between the numbers of animals in the drug and control groups reentering the darkened chamber was equal or greater than three out of ten)"
same,reversal of retrograde amnesia (Table C),rats; 0.01 mg/kg,57
same,"active (A) / inactive (N), reversal of retrograde amnesia",rats; 0.1 mg/kg,"N (if less than three, the test compound was considered ""inactive"" (N))"
same,reversal of retrograde amnesia (Table C),rats; 0.1 mg/kg,57
same,"active (A) / inactive (N), reversal of retrograde amnesia",rats; 1.0 mg/kg,"N (if less than three, the test compound was considered ""inactive"" (N))"
same,reversal of retrograde amnesia (Table C),rats; 1.0 mg/kg,0
"CCCN1CCC(c2ccccc2)=C(C(=O)OC)C1 [Example 22, 1,2,5,6-Tetrahydro-4-phenyl-1-propyl-3-pyridinecarboxylic acid, methyl ester]",IC50,muscarinic binding site,6.5 µM
same,"active (A) / inactive (N), reversal of retrograde amnesia",rats; 0.01 mg/kg,"A (""active"" (A) if the difference between the numbers of animals in the drug and control groups reentering the darkened chamber was equal or greater than three out of ten)"
same,reversal of retrograde amnesia (Table C),rats; 0.01 mg/kg,57
same,"active (A) / inactive (N), reversal of retrograde amnesia",rats; 0.1 mg/kg,"A (""active"" (A) if the difference between the numbers of animals in the drug and control groups reentering the darkened chamber was equal or greater than three out of ten)"
same,reversal of retrograde amnesia (Table C),rats; 0.1 mg/kg,81
same,"active (A) / inactive (N), reversal of retrograde amnesia",rats; 1.0 mg/kg,"A (""active"" (A) if the difference between the numbers of animals in the drug and control groups reentering the darkened chamber was equal or greater than three out of ten)"
same,reversal of retrograde amnesia (Table C),rats; 1.0 mg/kg,57

# Reference: patent US4745123A, “Substituted tetrahydro-3-pyridine-carboxylic acid, ester, and amide cholinergic agents” (priority 1986, dated 1988)
